Assay results: the supplement of paper PMC7394473

Tests used:
Conditions in all cases: 72 h
[1] = test system: U2OS; assay: GRmin (fitted minimal GR value at highest effect) (GR value (dimensionless)); higher = less efficacious
Protocol: (§1)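 U2OS cells treated with full dose titrations of drug; live and dead cells counted by STACK microscopy (mKate2 nuclei, SYTOX Green) at 72 h, biological triplicates. GR and FV dose responses were fitted with 4-parameter logistic models (GR lower bound -1). GRADE (0-100) is the rescaled angle of a linear fit of FV versus GR at doses with GR >= 0, giving the percentage of the response due to cell death.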

[2] = test system: U2OS; assay: drug GRADE (percent of response due to cell death) (% (0-100)); higher = more death-driven response
Protocol: as §1

[3] = test system: U2OS; assay: FV IC50 (concentration giving fractional viability 0.5); higher = less potent killing
Protocol: as §1

[4] = test system: U2OS; assay: GR50 (concentration giving GR = 0.5)
Protocol: as §1

[5] = test system: U2OS; assay: fractional viability (live cells / total cells); higher = less cell death
Protocol: (§2)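 U2OS::Nuc-mKate2 cells seeded in 96-well plates and treated with eight- to ten-point half-log or log dilutions of drug in the presence of 50 nM SYTOX Green. Live (mKate2+) and dead (SYTOX+) cells were counted by IncuCyte STACK live-cell microscopy at 72 h; biological triplicates. GR is the normalised growth-rate inhibition value (Hafner 2016; 1 = untreated growth, <0 = population shrinking). FV is live/(live+dead) cells, not normalised.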

[6] = test system: U2OS; assay: normalized growth rate inhibition value (GR) relative to untreated cells (GR value (dimensionless, 1 = untreated growth)); higher = less growth inhibition
Protocol: as §2

O=C(Nc1ccc([N+](=O)[O-])cc1Cl)c1cc(Cl)ccc1O [Nicolsamide]
Conditions | FV IC50 [µM] | GR50 [µM] | GRmin | drug GRADE
[1] | – | – | -0.791 | –
[2] | – | – | – | 29.4
[3] | 0.803 | – | – | –
[4] | – | 0.347 | – | –

Conditions | fractional viability, [5] | normalized growth rate inhibition value, [6]
0.01 µM | 0.98 | 0.975
0.0316 µM | 0.975 | 1.01
0.1 µM | 0.979 | 0.934
0.316 µM | 0.942 | 0.557
1 µM | 0.33 | -0.319
3.16 µM | 0.0377 | -0.722
10 µM | 0.0138 | -0.81
31.6 µM | 0.0218 | -0.763

C[C@@H]1O[C@@H](O[C@H]2C[C@@H](O)[C@]3(CO)[C@H]4[C@H](O)C[C@]5(C)[C@@H](C6=CC(=O)OC6)CC[C@]5(O)[C@@H]4CC[C@]3(O)C2)[C@H](O)[C@H](O)[C@H]1O [Ouabain]
Conditions | FV IC50 [µM] | GR50 [µM] | GRmin | drug GRADE
[1] | – | – | -0.593 | –
[2] | – | – | – | 30.9
[3] | 0.0526 | – | – | –
[4] | – | 0.0164 | – | –

Conditions | fractional viability, [5] | normalized growth rate inhibition value, [6]
0.01 µM | 0.977 | 0.661
0.0316 µM | 0.763 | 0.148
0.1 µM | 0.249 | -0.42
0.316 µM | 0.165 | -0.554
1 µM | 0.149 | -0.569
3.16 µM | 0.142 | -0.6
10 µM | 0.161 | -0.579
31.6 µM | 0.141 | -0.629

Cc1[nH]c2ccccc2c1CCNCc1ccc(/C=C/C(=O)NO)cc1 [Panobinostat]
Conditions | FV IC50 [µM] | GR50 [µM] | GRmin | drug GRADE
[1] | – | – | -0.832 | –
[2] | – | – | – | 55.3
[3] | 1.67 | – | – | –
[4] | – | 0.383 | – | –

Conditions | fractional viability, [5] | normalized growth rate inhibition value, [6]
0.01 µM | 0.983 | 1.04
0.0316 µM | 0.984 | 1.05
0.1 µM | 0.979 | 0.794
0.316 µM | 0.933 | 0.61
1 µM | 0.685 | 0.00935
3.16 µM | 0.271 | -0.45
10 µM | 0.0583 | -0.679
31.6 µM | 0.00906 | -0.831

COC(=O)c1ccc([C@H]2c3[nH]c4ccccc4c3C[C@H](C(=O)OC)N2C(=O)CCl)cc1 [RSL3]
Conditions | FV IC50 [µM] | GR50 [µM] | GRmin | drug GRADE
[1] | – | – | -0.866 | –
[2] | – | – | – | 54.5
[3] | 3.55 | – | – | –
[4] | – | 1.58 | – | –

Conditions | fractional viability, [5] | normalized growth rate inhibition value, [6]
0.01 µM | 0.983 | 1.05
0.0316 µM | 0.976 | 0.96
0.1 µM | 0.977 | 0.977
0.316 µM | 0.974 | 0.999
1 µM | 0.956 | 0.792
3.16 µM | 0.566 | -0.133
10 µM | 0.0831 | -0.646
31.6 µM | 0.00106 | -0.916

Cc1cc(Nc2ccc(NC(=O)c3ccc(Nc4ccnc5ccccc45)cc3)cc2)nc(N)n1 [SGI-1027]
Conditions | FV IC50 [µM] | GR50 [µM] | GRmin | drug GRADE
[1] | – | – | -0.799 | –
[2] | – | – | – | 37.1
[3] | 1.62 | – | – | –
[4] | – | 1.15 | – | –

Conditions | fractional viability, [5] | normalized growth rate inhibition value, [6]
0.01 µM | 0.975 | 0.952
0.0316 µM | 0.977 | 1.02
0.1 µM | 0.98 | 0.932
0.316 µM | 0.975 | 0.948
1 µM | 0.87 | 0.642
3.16 µM | 0.0651 | -0.651
10 µM | 0.00115 | -0.88
31.6 µM | 0.0226 | -0.717

CNc1cc(-c2cccc(Cl)c2Cl)nc(N)n1 [TH287]
Conditions | FV IC50 [µM] | GR50 [µM] | GRmin | drug GRADE
[1] | – | – | -0.144 | –
[2] | – | – | – | 60
[3] | 3.64 | – | – | –
[4] | – | 0.672 | – | –

Conditions | fractional viability, [5] | normalized growth rate inhibition value, [6]
0.01 µM | 0.973 | 0.956
0.0316 µM | 0.981 | 0.997
0.1 µM | 0.976 | 0.99
0.316 µM | 0.953 | 0.786
1 µM | 0.787 | 0.278
3.16 µM | 0.534 | 0.0764
10 µM | 0.383 | -0.106
31.6 µM | 0.476 | -0.187

CC(=O)O[C@H]1C(=O)[C@@]2(C)[C@H]([C@H](OC(=O)c3ccccc3)[C@]3(O)C[C@H](OC(=O)[C@H](O)[C@@H](NC(=O)c4ccccc4)c4ccccc4)C(C)=C1C3(C)C)[C@]1(OC(C)=O)CO[C@@H]1C[C@@H]2O [Taxol]
Conditions | FV IC50 [µM] | GR50 [µM] | GRmin | drug GRADE
[1] | – | – | 0.104 | –
[2] | – | – | – | 75.6
[3] | 0.577 | – | – | –
[4] | – | 0.0907 | – | –

Conditions | fractional viability, [5] | normalized growth rate inhibition value, [6]
0.000100578 µM | 0.991 | 1.13
0.000317827 µM | 0.991 | 1.2
0.00100433 µM | 0.991 | 1.23
0.00317369 µM | 0.988 | 1.14
0.0100289 µM | 0.98 | 1.06
0.0316912 µM | 0.897 | 0.813
0.100144 µM | 0.759 | 0.461
0.316456 µM | 0.591 | 0.211
1 µM | 0.44 | 0.0877

COc1cc2nccc(Oc3ccc(NC(=O)Nc4cc(C)on4)c(Cl)c3)c2cc1OC [Tivozanib]
Conditions | FV IC50 [µM] | GR50 [µM] | GRmin | drug GRADE
[1] | – | – | -0.878 | –
[2] | – | – | – | 7.57
[3] | 7.34 | – | – | –
[4] | – | 3.87 | – | –

Conditions | fractional viability, [5] | normalized growth rate inhibition value, [6]
0.01 µM | 0.977 | 0.857
0.0316 µM | 0.982 | 1.17
0.1 µM | 0.98 | 1.05
0.316 µM | 0.977 | 1.03
1 µM | 0.977 | 0.812
3.16 µM | 0.949 | 0.681
10 µM | 0.229 | -0.421
31.6 µM | 0.0183 | -0.823

CC[C@@]1(O)C(=O)OCc2c1cc1n(c2=O)Cc2cc3c(CN(C)C)c(O)ccc3nc2-1 [Topotecan]
Conditions | FV IC50 [µM] | GR50 [µM] | GRmin | drug GRADE
[1] | – | – | -0.0768 | –
[2] | – | – | – | 9.92
[3] | 7.66 | – | – | –
[4] | – | 0.0151 | – | –

Conditions | fractional viability, [5] | normalized growth rate inhibition value, [6]
0.00100578 µM | 0.985 | 1.09
0.00317827 µM | 0.985 | 0.979
0.0100433 µM | 0.978 | 0.698
0.0317369 µM | 0.94 | 0.105
0.100289 µM | 0.963 | 0.14
0.316912 µM | 0.923 | 0.0543
1.00144 µM | 0.846 | -0.044
3.16456 µM | 0.675 | -0.147
10 µM | 0.444 | -0.295

CC(C)[C@]12O[C@H]1[C@@H]1O[C@]13[C@]1(O[C@H]1C[C@H]1C4=C(CC[C@@]13C)C(=O)OC4)[C@@H]2O [Triptolide]
Conditions | FV IC50 [µM] | GR50 [µM] | GRmin | drug GRADE
[1] | – | – | -0.262 | –
[2] | – | – | – | 8
[3] | 0.0112 | – | – | –
[4] | – | 0.00421 | – | –

Conditions | fractional viability, [5] | normalized growth rate inhibition value, [6]
3.16 pM | 0.981 | 1.03
31.6 pM | 0.979 | 1.01
0.000316 µM | 0.979 | 0.928
0.00316 µM | 0.957 | 0.633
0.0316 µM | 0.18 | -0.197
0.316 µM | 0.155 | -0.249
3.16 µM | 0.154 | -0.267
31.6 µM | 0.159 | -0.258

CC(C)[C@@H]1NC(=O)[C@H](C)OC(=O)[C@@H](C(C)C)NC(=O)[C@@H](C(C)C)OC(=O)[C@H](C(C)C)NC(=O)[C@H](C)OC(=O)[C@@H](C(C)C)NC(=O)[C@@H](C(C)C)OC(=O)[C@H](C(C)C)NC(=O)[C@H](C)OC(=O)[C@@H](C(C)C)NC(=O)[C@@H](C(C)C)OC1=O [Valinomycin]
Conditions | FV IC50 [µM] | GR50 [µM] | GRmin | drug GRADE
[1] | – | – | -0.0918 | –
[2] | – | – | – | 34.4
[3] | 4.06 | – | – | –
[4] | – | 0.0108 | – | –

Conditions | fractional viability, [5] | normalized growth rate inhibition value, [6]
0.00100578 µM | 0.993 | 1.02
0.00317827 µM | 0.991 | 0.986
0.0100433 µM | 0.874 | 0.171
0.0317369 µM | 0.933 | 0.472
0.100289 µM | 0.685 | -0.0547
0.316912 µM | 0.737 | 0.0438
1.00144 µM | 0.675 | -0.0358
3.16456 µM | 0.553 | -0.0823
10 µM | 0.384 | -0.225

O=C(CCCCCCC(=O)Nc1ccccc1)NO [Vorinostat]
Conditions | FV IC50 [µM] | GR50 [µM] | GRmin | drug GRADE
[1] | – | – | -0.601 | –
[2] | – | – | – | 28
[3] | 0.765 | – | – | –
[4] | – | 0.274 | – | –

Conditions | fractional viability, [5] | normalized growth rate inhibition value, [6]
0.00100578 µM | 0.992 | 0.932
0.00317827 µM | 0.99 | 1.11
0.0100433 µM | 0.991 | 0.89
0.0317369 µM | 0.985 | 0.906
0.100289 µM | 0.973 | 0.901
0.316912 µM | 0.875 | 0.396
1.00144 µM | 0.365 | -0.201
3.16456 µM | 0.16 | -0.515
10 µM | 0.091 | -0.591

COCC[n+]1c2c(n(Cc3cnccn3)c1C)C(=O)c1ccccc1C2=O [YM155]
Conditions | FV IC50 [µM] | GR50 [µM] | GRmin | drug GRADE
[1] | – | – | -0.913 | –
[2] | – | – | – | 44.1
[3] | 0.0364 | – | – | –
[4] | – | 0.00769 | – | –

Conditions | fractional viability, [5] | normalized growth rate inhibition value, [6]
3.16 pM | 0.981 | 0.943
31.6 pM | 0.981 | 1
0.000316 µM | 0.983 | 1.02
0.00316 µM | 0.962 | 0.777
0.01 µM | 0.852 | 0.107
0.0316 µM | 0.59 | 0.0141
0.1 µM | 0.0412 | -0.788
0.316 µM | 0.00681 | -0.79
1 µM | 0.00318 | -0.94
3.16 µM | 0.00039 | -0.882
10 µM | 0 | -0.967
31.6 µM | 0.0019 | -0.859
